Assay results taken from patent US12528774B2, “Thiosemicarbazone compounds and uses thereof” (The Regents of the University of California, priority 2019, dated 2026).

Tests used:
MIAPACA2 cells [1] = experiment: Proliferation assay (CellTiter-Glo, 72 h) in MIAPACA2 cells; format: cell-based, human
MIAPACA2 cells [2] = experiment: Viability assay (trypan blue) in MIAPACA2 cells with co-treatments; format: cell-based
Text: FIG. 1A: IC50 values in a panel of human and mouse prostate cancer (PC)(cell lines CF-2, LNCaP, 22Rv1, RM-1, MyC CaP); small cell lung carcinoma (SCLC)(cell lines NCI-H1963, NCI-H146, NCI-H526); pancreatic ductal adenocarcinoma (PDAC)(CFPAC1, SW1990, HS766T, PANC0203, PANC0813, ASPC1, HPAFII, PATU8902, PANC0327, PANC1, YAPC, L36PL, XWR200, HUPT4, A13A, SUIT2, DAN-G, BxPC3, HPAC, PSN1, SU8686, KP4662, MIAPACA2, PATU8988T); and leukemia (cell lines KG-1, TF-1, Jurkat, MOLT-4, p185-R, MV4-11) models treated with HCT13+Cu(II) (20 μM) for 72 h measured by CellTiterGlo. […] (mean±SD, n=2, one-way ANOVA corrected for multiple comparisons by Bonferroni adjustment, * P<0.05; **P<0.01; ***P<0.001).
FIGS. 2A-2I. FIG. 2A: representative immunoblots of MIAPACA2 PDAC cells treated as indicated for 24h. FIGS. 2B-2C: reactive oxygen species (ROS) measurement using CM-H2DCFDA staining after HCT13 (25 nM)+Cu(II) (20 μM) treatment for 24h; mean fluorescence intensity (MFI); mean±SD, n=2, Student t-test, ***P<0.001. FIG. 2D-2E: mitochondrial ROS detection using MitoSOX staining in MIAPACA2 PDAC cells treated with HCT-13 (25 nM)+Cu(II) (20 μM) for 24h; mean±SD, n=2, Student t-test, ***P<0.001. FIG. 2F: oxygen consumption rate (OCR) of MIAPACA2 PDAC cells treated with HCT-13 (25 nM)+Cu(II) (20 μM). FIG. 2G: OCR of isolated mitochondria measured with or without HCT-13 (25 nM)+Cu(II) (20 μM). FIG. 2H: viability of 143 BTK parental (wild type, WT) and po cells after 48 h of treatment with the indicated HCT-13 concentrations+Cu(II) (20 μM) treatment, assessed with trypan blue staining; mean±SD, n=2, Student t-test, ***P<0.001. FIG. 2I: cell viability by trypan blue staining in MIAPACA2 PDAC cells to interrogate the interaction of HCT-13 (25 nM)+Cu(II) (20 μM) with 2-DG (2 mM) for 48 h; mean±SD, n=2, Student t-test, ***P<0.001.
FIG. 5A: rescue of HCT-13 (25 nM)-induced cell death by Uridine (rU) (200 μM), Pyruvate (1 mM), or both following 48h of treatment. FIG. 5B: measurement of DHODH activity using recombinant DHODH assay following treatment with indicated perturbations for 2 min. DHODH inhibitor used: NITD-982-1 μM; HCT-13-100 nM, 1 μM, (100 nM data shown); Cu(II)—20 μM. (mean±SD, n=2, Student t-test, * P<0.05).
Viability/Apoptosis assay: Viable cells were measured by Trypan blue staining using vi-cell counter (Beckman Coulter, CA, USA). Apoptosis and cell death were assayed using Annexin V-FITC and PI according to manufacturer's instructions (FITC Annexin V Apoptosis Detection Kit, BD Sciences, #556570).
Viability/Apoptosis assay. Viable cells were measured by Trypan blue staining using a Vi-Cell counter (Beckman Coulter, CA, USA). […]

## CN(C)C(=S)N/N=C/c1nccc2cc(F)ccc12 (mixture of isomers) [HCT13, (E)-2-((6-Fluoroisoquinolin-1-yl)methylene)-N,N-dimethylhydrazine-1-carbothioamide and (Z)-2-((6-Fluoroisoquinolin-1-yl)methylene)-N,N-dimethylhydrazine-1-carbothioamide]
MIAPACA2 cells [1]; Fe(II) 20 μM
  antiproliferative potency with Fe(II) supplementation: diminished but still active
MIAPACA2 cells [1]; Zn(II) 20 μM
  antiproliferative potency with Zn(II) supplementation: largely inactive
MIAPACA2 cells [2]; HCT13 25 nM + Cu(II) 20 μM, 24 h, BCPS 300 μM
  cytotoxicity in presence of bathocuproine disulfonate (BCPS): abrogated
MIAPACA2 cells [2]; HCT-13 25 nM + Cu(II) 20 μM, 2-DG 2 mM, 48 h
  activity with co-administration of 2-deoxyglucose (2-DG): significantly potentiated
MIAPACA2 cells [2]; HCT-13 25 nM, pyruvate 1 mM, 48 h
  cytotoxicity with pyruvate supplementation: not by pyruvate
MIAPACA2 cells [2]; HCT-13 25 nM, uridine 200 μM, 48 h
  cytotoxicity with uridine (rU) supplementation: partially abolished
